In ChEMBL document CHEMBL1125494, “A molecular modeling study of the interactions between the antiestrogen drug tamoxifen and several derivatives, and the calcium-binding protein calmodulin” (J Med Chem, 1992):

Experiment: Inhibition of calmodulin dependent cAMP phosphodiesterase.

With `CCC(=C(c1ccc(O)cc1)c1ccc(OCCN(C)C)cc1)c1ccccc1` the IC50 was 19 µM.

For `CC/C(=C(\c1ccccc1)c1ccc(OCCN(CC)CC)cc1)c1ccccc1`, the IC50 was 10 µM.

`CC/C(=C(\c1ccccc1)c1ccc(OCCN2CCNCC2)cc1)c1ccccc1` showed an IC50 greater than 50 µM.

For `CC/C(=C(\c1ccc(I)cc1)c1ccc(OCCN(C)C)cc1)c1ccccc1`, the IC50 was 2.3 µM.

Work on `C/C(=C(\c1ccccc1)c1ccc(OCCN(C)C)cc1)c1ccccc1` yielded an IC50 of 20 µM.

`CC/C(=C(\c1ccccc1)c1ccc(OCCN(C)C)cc1)c1ccccc1` [TAMOXIFEN] showed an IC50 of 6.75 µM.
